Assay results: paper PMC10441460, “Identification of Selective ATP-Competitive CMG Helicase Inhibitors for Cancer Intervention that Disrupt CMG-Replisome Function” (Research Square, 2023)

Columns and labels:
[1] = test system: T1, human CMG helicase (Cdc45-MCM-GINS; Mcm2-7 ATPase core); experiment: DNA fork-unwinding helicase assay, dose-dependent suppression; type: biochemical
T1 construct: 11-subunit hCMG holoenzyme co-expressed by baculovirus in insect cells (Cdc45, Mcm2-7, GINS); with Cdc45 and GINS (Sld5, Psf1, Psf2, Psf3)

[2] = test system: T2, Nc1ncnc2c1ncn2[C@@H]1O[C@H](COP(=O)(O)OP(=O)(O)OP(=O)(O)O)[C@@H](O)[C@H]1O; experiment: helicase kinetics with increasing ATP (Km); type: biochemical, Homo sapiens; settings: Mg2+ MCM ATPase clefts formed between adjacent MCM subunit pairs
T2 construct: 11-subunit hCMG holoenzyme co-expressed by baculovirus in insect cells (Cdc45, Mcm2-7, GINS); with Cdc45 and GINS (Sld5, Psf1, Psf2, Psf3)

| Compound | DNA fork-unwinding helicase assay, dose-dependent suppression [1] | Km [2] [µM] |
| --- | --- | --- |
| Nc1ncnc2c1ncn2[C@@H]1O[C@H](COP(=O)(O)OP(=O)(O)OP(O)(O)=S)[C@@H](O)[C@H]1O [ATP-γ-S] | dose-dependent suppression of fork-unwinding activity in the presence of slow-hydrolyzable ATP-γ-S | – |
| human CMG helicase (Cdc45-MCM-GINS; Mcm2-7 ATPase core) (Homo sapiens) | – | 690 |
